Reference: patent US8815900B2, “Compounds and compositions for reducing lipid levels” (CVI Pharmaceuticals Limited, priority 2007, dated 2014)
Several values for one entry are separate records, joined by “and”; a condition that tells them apart may be missing. Identical values can stand only once.

Test: Pharmacokinetics of CRDL in male hamsters following intravenous and oral administration
Format: in vivo
Conditions: for F: PO (20 mg/kg) vs IV (2 mg/kg)
Description: The plasma concentration of CRDL was determined in male hamsters following intravenous or oral administration. Hamsters were given CRDL at 2 mg/kg i.v. or 20 mg/kg p.o. Blood samples were collected at the indicated time points and the plasma was isolated.

[1] = IV (2 mg/kg), individual hamsters H1-H3, 2 mg/kg
[2] = PO (20 mg/kg), individual hamsters H4-H6, 20 mg/kg

Concentration in plasma (IV 2 mg/kg, 0.083 hr, mean): 594.29 ng/mL | Concentration in plasma (IV 2 mg/kg, 0.25 hr, mean): 308.25 ng/mL | Concentration in plasma (IV 2 mg/kg, 0.5 hr, mean): 140.54 ng/mL | Concentration in plasma (IV 2 mg/kg, 1 hr, mean): 66.53 ng/mL | Concentration in plasma (IV 2 mg/kg, 2 hr, mean): 23.76 ng/mL | Concentration in plasma (IV 2 mg/kg, 6 hr, individual hamsters H1-H3, 2 mg/kg): 6.34 ng/mL and 4.76 ng/mL and 4.67 ng/mL | Concentration in plasma (IV 2 mg/kg, 6 hr, mean): 5.25 ng/mL | Concentration in plasma (IV 2 mg/kg, 24 hr, individual hamsters H1-H3): BLQ | Tmax (IV (2 mg/kg), individual hamsters H1-H3): 0.08 h | AUC(0-∞) [1]: 374 ng·h/mL and 351 ng·h/mL and 345 ng·h/mL | MRT(0-∞) [1]: 0.98 h and 1.17 h and 0.94 h | Vz [1]: 10.44 L/kg and 13.64 L/kg and 9.96 L/kg | t1/2z [1]: 1.35 h and 1.66 h and 1.19 h | AUC(0-t) (IV (2 mg/kg), mean): 345.74 ng·h/mL | AUC(0-∞) (IV (2 mg/kg), mean): 357 ng·h/mL | Cmax (IV (2 mg/kg), mean): 594.29 ng/mL | MRT(0-∞) (IV (2 mg/kg), mean): 1.03 h | Tmax (IV (2 mg/kg), mean): 0.08 h | Vz (IV (2 mg/kg), mean): 11.35 L/kg | t1/2z (half life) (IV (2 mg/kg), mean): 1.4 h | CLz (clearance) (IV (2 mg/kg), mean, 2 mg/kg): 93.3 mL/min/kg and 93.7 mL/min/kg | Concentration in plasma (PO 20 mg/kg, 0.25 hr, mean): 1155.75 ng/mL | Concentration in plasma (PO 20 mg/kg, 0.75 hr, mean): 250.44 ng/mL | Concentration in plasma (PO 20 mg/kg, 1 hr, mean): 200.37 ng/mL | Concentration in plasma (PO 20 mg/kg, 2 hr, mean): 81.01 ng/mL | Concentration in plasma (PO 20 mg/kg, 6 hr, mean): 15.01 ng/mL | Concentration in plasma (PO 20 mg/kg, 8 hr, mean): 12.09 ng/mL | Concentration in plasma (PO 20 mg/kg, 24 hr, individual hamsters H4-H6, 20 mg/kg): 3.41 ng/mL and 2.64 ng/mL and 3.12 ng/mL | Concentration in plasma (PO 20 mg/kg, 24 hr, mean): 3.04 ng/mL | F (individual hamsters H4-H6): 34.56% and 22.28% and 33.19% | F (mean): 30.01% | Tmax (PO (20 mg/kg), individual hamsters H4-H6): 0.25 h | AUC(0-∞) [2]: 1230 ng·h/mL and 795 ng·h/mL and 1180 ng·h/mL | MRT(0-∞) [2]: 3.41 h and 3.96 h and 3.37 h | t1/2z [2]: 8.94 h and 10.13 h and 6.43 h | AUC(0-t) (PO (20 mg/kg), mean): 1033.21 ng·h/mL | AUC(0-∞) (PO (20 mg/kg), mean): 1070 ng·h/mL | Cmax (PO (20 mg/kg), mean): 1155.75 ng/mL | MRT(0-∞) (PO (20 mg/kg), mean): 3.58 h | Tmax (PO (20 mg/kg), mean): ~0.25 h | t1/2z (PO (20 mg/kg), mean): 8.50 h
SMILES: COc1cc2c(cc1OC)[C@H]1[C@@H](C)c3ccc(OC)c(OC)c3CN1CC2 [CRDL, 14R,13S-(+)-corydaline]
Concentration in plasma (IV 2 mg/kg, 0.083 hr, individual hamsters H1-H3, 2 mg/kg): 621.33 ng/mL and 520.38 ng/mL and 641.16 ng/mL | Concentration in plasma (IV 2 mg/kg, 0.25 hr, individual hamsters H1-H3, 2 mg/kg): 255.56 ng/mL and 350.21 ng/mL and 318.96 ng/mL | Concentration in plasma (IV 2 mg/kg, 0.5 hr, individual hamsters H1-H3, 2 mg/kg): 124.95 ng/mL and 165.87 ng/mL and 130.79 ng/mL | Concentration in plasma (IV 2 mg/kg, 1 hr, individual hamsters H1-H3, 2 mg/kg): 60.71 ng/mL and 69.78 ng/mL and 69.09 ng/mL | Concentration in plasma (IV 2 mg/kg, 2 hr, individual hamsters H1-H3, 2 mg/kg): 23.92 ng/mL and 19.37 ng/mL and 27.99 ng/mL | AUC(0-t) [1]: 364.46 ng·h/mL and 335.91 ng·h/mL and 336.84 ng·h/mL | CLz [1]: 89.2 mL/min/kg and 95 mL/min/kg and 96.7 mL/min/kg | Cmax [1]: 641.16 ng/mL and 621.33 ng/mL and 520.38 ng/mL | Concentration in plasma (PO 20 mg/kg, 0.25 hr, individual hamsters H4-H6, 20 mg/kg): 1263.21 ng/mL and 895.64 ng/mL and 1308.39 ng/mL | Concentration in plasma (PO 20 mg/kg, 0.75 hr, individual hamsters H4-H6, 20 mg/kg): 369.71 ng/mL and 164.19 ng/mL and 217.42 ng/mL | Concentration in plasma (PO 20 mg/kg, 1 hr, individual hamsters H4-H6, 20 mg/kg): 254.54 ng/mL and 146.76 ng/mL and 199.83 ng/mL | Concentration in plasma (PO 20 mg/kg, 2 hr, individual hamsters H4-H6, 20 mg/kg): 98.97 ng/mL and 62.78 ng/mL and 81.27 ng/mL | Concentration in plasma (PO 20 mg/kg, 6 hr, individual hamsters H4-H6, 20 mg/kg): 14.54 ng/mL and 9.66 ng/mL and 20.83 ng/mL | Concentration in plasma (PO 20 mg/kg, 8 hr, individual hamsters H4-H6, 20 mg/kg): 10.93 ng/mL and 6.80 ng/mL and 18.54 ng/mL | AUC(0-t) [2]: 1188.19 ng·h/mL and 756.88 ng·h/mL and 1154.55 ng·h/mL | Cmax [2]: 1263.21 ng/mL and 895.64 ng/mL and 1308.39 ng/mL
